Experimental data reported in US12150927B2, “Use of cannabidiolic acid in the treatment of autism spectrum disorder and associated disorders” (GW Research Limited, priority 2016, dated 2024).

Legend:
[1] = tested on: VPA-exposed offspring; experiment: Locomotor activity and repetitive behaviours (self-grooming) in activity cage, rat VPA model; assay type: in vivo, Sprague-Dawley rats; settings: CBDA 20 mg/kg/day i.p. PND 34-56
Description: (§1) Pregnant Sprague-Dawley rats (Charles River, Calco, Italy), received a single intraperitoneal injection of 500 mg/kg sodium valproate on the 12.5 day after conception, and control females were injected with physiological saline at the same time. Sodium valproate (Sigma Aldrich, Milan, IT) was dissolved in saline at a concentration of 250 mg/ml.
(§2) CBDA was dissolved in ethanol, cremophor and saline (1:1:18). Symptomatic treatment with CBDA at doses of 2 and 20 mg/kg/day i.p. was performed starting from PND 34 (early adolescence) till 56 (early adulthood), both in male and female offspring of dams injected with VPA 500 mg/kg (or vehicle) on day 12.5 after conception. At PND 56, a series of behavioural tests was performed in order to assess the effect of chronic CBDA on sociability, social novelty, short-term memory, locomotion and stereotyped/repetitive behaviours.
Locomotor activity and repetitive behaviours: Locomotor activity was recorded in an activity cage for 20 minutes with the aid of Anymaze program (Ugo Basile, Italy). In this period, repetitive behaviours (self-grooming and digging) were measured by an observer blind to the treatment group.

[2] = tested on: MeCP2 KO mice; experiment: Novel Object Recognition (NOR) test, short- and long-term memory, mouse model of Rett syndrome; assay type: in vivo
Description: Furthermore, the efficacy of CBDA in reverting/attenuating the short- and long-term memory deficits present in these mice was evaluated. The Novel Object Recognition (NOR) test was performed before the starting of the treatment Post Natal Day 28 (PND 28), at PND 41 when the first motor symptoms appear and at PND 56 and 66 when the disease is fully manifested.
At PND 28, 41, 56 and 66 the effect of CBDA on short- and long-term memory deficits was investigated through the Novel Object Recognition (NOR) test.
The experiment was performed as previously described (Zamberletti E. et al. 2014 and Kruk-Stomka M. et al. 2014).
The experimental apparatus used for the Novel Object Recognition test was an open-field box (43×43×32 cm) made of Plexiglas, placed in a dimly illuminated room. Animals performed each test individually.
Briefly, each animal was placed in the arena and allowed to explore two identical previously unseen objects for 10 minutes (familiarization phase). After an inter-trial interval of 30 minutes and 24 hours one of the two familiar objects was replaced by a novel, previously unseen object and mice were returned to the arena for the 10-minute test phase.
During the test phase the time spent exploring the familiar object (Ef) and the new object (En) was recorded separately by two observers blind to the groups and the discrimination index was calculated as follows: [(En−Ef)/(En+Ef)]×100.

[3] = tested on: Ube3am-/p+ (AS) mice; experiment: Rotarod test, mouse model of Angelman syndrome; assay type: in vivo; settings: chronic treatment (30 days) CBDA 20 mg/kg i.p., 10 weeks, vs AS vehicle, FIG. 13
Description: Heterozygous mice with maternal deficiency of Ube3A (Ube3am−/p+) and wild type (Ube3am+/p+) were purchased from The Jackson Laboratory (Jackson code: B6.129S7-Ube3a tm1Alb/J) and maintained in a C57BL/6 background.
Drugs were dissolved in 1:1:18 ethanol:cremophor:0.9% saline, for intraperitoneal (i.p.) administration. […] CBDA was administered at 20 mg/kg.
Rotarod: The rotarod test assesses balance and motor coordination of mice. Mice have been measured for the time (in seconds) of equilibrium before falling on a rotary cylinder by a magnet that, activated from the fall of the mouse on the plate, allows to record the time of permanence on the cylinder. […] The animals were analysed by 2 separate tests at 1-h interval in the same day.

[4] = tested on: VPA rats; experiment: Short-term memory, novel object recognition test, rat VPA model; assay type: in vivo, Sprague-Dawley rats; settings: FIG. 2C
Description: as §1, §2
Short-term memory: The experimental apparatus used for the object recognition test was an open-field box (43×43×32 cm) made of Plexiglas, placed in a dimly illuminated room. The experiment was performed and analysed as previously described (Zamberletti et al, 2014). Animals performed each test individually.
Each animal was placed in the arena and allowed to explore two identical previously unseen objects for 5 minutes (familiarization phase). After an inter-trial interval of 3 minutes one of the two familiar objects was replaced by a novel, previously unseen object and rats were returned to the arena for the 5-minute test phase. During the test phase the time spent exploring the familiar object (Ef) and the new object (En) was videotaped and recorded separately by two observers blind to the treatment groups and the discrimination index was calculated as follows: [(En−Ef)/(En+Ef)]×100.

[5] = tested on: Fmr1 KO and WT mice (PND21); experiment: Susceptibility to audiogenic seizures; assay type: in vivo
Description: This trait was evaluated in PND21 mice after acute administration of the compounds or its vehicle, 30 min before starting the procedure. To measure audiogenic seizure sensitivity mice were placed individually into a novel environment, a glass cylinder (40 cm high, 16 cm diameter) and allowed to explore for 1 min. Next, a bell (100 dB) was rung for 30 see and seizure activity scored according to the following scale: no response, 0; wild running, 1; clonic seizure, 2; tonic seizure, 3; status epilepticus/respiratory arrest/death, 4.
On postnatal day 21 (PND21) WT and Fmr1 KO mice were injected with CBDA (20 mg/kg) or vehicle, 30 min before exposure to a bell ring (100 dB). Mice exposed to this noise for 30 see ceased from their normal exploratory behaviour and reacted with gradually to wild-running, clonic seizure, tonic seizure or death. The maximum response was annotated for each mouse as detailed in Table 2 below. A score was calculated according to the severity of the symptoms as explained in the Methods section.

[6] = FXS (Fmr1 KO) mice PND21, n = 5, CBDA 20 mg/kg acute (30 min)
[7] = WT mice PND21, n = 6, CBDA 20 mg/kg acute (30 min)

Compound: C=C(C)[C@@H]1CCC(C)=C[C@H]1c1c(O)cc(CCCCC)c(C(=O)O)c1O [CBDA, Cannabidiolic acid]
- locomotor activity ([1]; VPA offspring, FIG. 2B): able to normalize this
- repetitive behaviours (time spent in compulsive self-grooming) ([1]; VPA-exposed offspring, FIG. 2A): significantly normalize this behaviour
- short-term memory in the NOR test ([2]; MeCP2 KO mice, CBDA 2 and 20 mg/kg i.p., each time point (PND 41, 56, 66), 30 min inter-trial interval, FIG. 10): reverted the cognitive impairment in short-term memory
- long-term memory in the NOR test ([2]; MeCP2 KO mice, both doses of CBDA (2 and 20 mg/kg i.p.), 24 hours inter-trial interval, FIG. 11): counteract the cognitive impairment in long-term memory
- short-term recognition memory in the NOR test ([2]; WT littermates, CBDA 2 and 20 mg/kg i.p., FIG. 10): without affecting recognition memory
- long-term recognition memory in the NOR test ([2]; WT littermates, both doses of CBDA, FIG. 11): without affecting recognition memory
- latency to fall (rotarod) [3]: significantly reduced latency to fall
- short-term memory (discrimination index) ([4]; CBDA 20 mg/kg/day i.p., female VPA rats): able to reverse the short-term memory deficit
- short-term memory (discrimination index) ([4]; CBDA 2 and 20 mg/kg/day i.p., male VPA rats): completely and significantly reversed the short-term memory deficit
- recognition memory per se ([4]; CBDA given to vehicle-treated (non VPA) rats): without affecting per se recognition memory
- number of mice with maximum response: Clonic seizure [5, 6]: 0
- number of mice with maximum response: Death [5, 6]: 0
- number of mice with maximum response: No response [5, 6]: 2
- number of mice with maximum response: Tonic seizure [5, 6]: 1
- number of mice with maximum response: Wild running [5, 6]: 2
- seizure severity ([5]; FXS mice, CBDA 20 mg/kg, 30 min before 100 dB bell, vs vehicle): either no seizures or seizures of lower severity
- number of mice with maximum response: Clonic seizure [5, 7]: 0
- number of mice with maximum response: Death [5, 7]: 0
- number of mice with maximum response: No response [5, 7]: 6
- number of mice with maximum response: Tonic seizure [5, 7]: 0
- number of mice with maximum response: Wild running [5, 7]: 0
